{"source": "patent US10952433B2", "about": "“Solutions for enhancing the effectiveness of insecticides and fungicides on living plants and related methods” (priority 2015, dated 2021)", "key": {"[1]": {"system": "lepidopteran larvae: cabbage loopers (Trichoplusia ni) and beet armyworms (Spodoptera exigua)", "assay_type": "in vivo", "conditions": "plants", "experimental": "In a first group of tests, the results of which are shown in Table 7 (pages 22-24), romaine lettuce plants two to three inches in height were exposed to 10 milliliters of solution applied to each plant using a low volume trigger spray. With respect to containers 0-7, ten plants were employed per container, nine were treated and one was an internal control. In containers M-H, ten plants per container were used, five were treated and 5 were internal controls. Each container was infested with 30 lepidopteran larvae between the 5th and 6th instar development. Fifteen cabbage loopers (Trichoplusia ni) and 15 beet armyworms (Spodoptera exigua) were used to infest the romaine lettuce plants. Visual evaluations for the average percentage total surface area damage were taken 24 hours after infestation. Percentage damage was evaluated by 5% increments for total damage across all plant leaves.\nAs indicated in the first column of Table 7, in some tests, no insecticide was employed and there were two controls; a no water control and a no dye control. A wide variety of insecticides selected from the following group were tested: Chlorantranilopril, Acephate, Methoxyfenozide, Spinosad, Permethrin, and Indoxacarb. The product concentration is shown in PPM in column 2. Column 3 is divided into two subunits, the first being CO3 and the second, PO4. In all instances in columns 3, 4 and 5 and their sub-columns, the concentrations used were 200:1. The fourth column employed amine oxide, but no buffer. […] Two sub-columns each are represented for CO3 and PO4. The final column is a reading of the Percent Lepidopteran Damage to the romaine lettuce plants after 24 hours.\nIn addition to testing the buffered amine system of the present invention with the two amine oxides identified as CO3 and PO4 and their use with 12 carbon length and a mixture of 12 and 18 designated 1218 for comparative data purposes various differences were created in the testing. Some of the tests were performed with (a) no insecticide along with (b) no amine oxide for CO3 and PO4 and (c) with no buffer, but with amine oxide. Also, tests were run using no insecticide and no water control with no foliar application being made. Tests with no insecticide and no dye control employed foliar application of water only. The tests were conducted with all of the testing on the buffer alone, the amine oxide alone and the buffered amine oxide system of the present invention in the concentration of 200:1."}, "[2]": {"system": "lepidopteran larvae: cabbage loopers (Trichoplusia ni) and beet armyworms (Spodoptera exigua)", "assay_type": "in vivo", "conditions": "leaf discs", "description": "A second series of tests involved romaine lettuce discs approximately ⅝ inch in diameter. (L. sativa). They were dipped in the treatment solution one second per disc. This test involved the 5/5 configuration, i.e., 5 treated and 5 untreated. The infestation involved […] lepidopteran larvae at the 3rd to 4th instar development per container: four cabbage loopers (Trichoplusia ni), and four beet armyworms (Spodoptera exigua) were employed. The test containers were placed in a dark humidity cabinet at 15° C. and 80% relative humidity. Visual evaluations of the average percent damage were taken at 24, 48 and 72 hours after the initiation of infestation. Damage was evaluated in 5% increments based on total disc area.\nIn the tests reported in Table 8 pages 29-32), romaine lettuce leaf discs ⅝″ in diameter (L. sativa) were dipped in the treatment solution for about one second per disc. Infestation was provided by eight lepidopteran larvae at the 3rd to 4th instar development per container. Four cabbage loopers (Trichoplusia ni) and four beet armyworms (Spodoptera exigua) were employed in infestation. The containers were placed in a dark humidity cabinet at 15° C. and 80% relative humidity. Visual observations of the average percent damage was taken at 24, 48 and 72 hours after infestation. Damage evaluation was by 5% increments over the total disc area.\nIn the tests results provided in Table 8, the identity and concentrations of the insecticide was identical to the tests results reported in Table 7. The concentration of 200:1 was employed for the no amino oxide, no buffer and buffered amine oxide system. This series of tests, however, reported how the percent damage changed with time at the respective 24, 48 and 72 hour intervals."}, "[3]": {"conditions": "insecticide + CO3 buffer 200:1, no amine oxide, PPM: Chlorantranilopril 60, Acephate 70, Methoxyfenozide 100, Spinosad 30, Permethrin 10, Indoxacarb 50"}, "[4]": {"conditions": "insecticide + PO4 buffer 200:1, no amine oxide, PPM: Chlorantranilopril 60, Acephate 70, Methoxyfenozide 100, Spinosad 30, Permethrin 10, Indoxacarb 50"}, "[5]": {"conditions": "insecticide + amine oxide 12, no buffer, 200:1, PPM: Chlorantranilopril 60, Acephate 70, Methoxyfenozide 100, Spinosad 30, Permethrin 10, Indoxacarb 50"}, "[6]": {"conditions": "insecticide + amine oxide 1218, no buffer, 200:1, PPM: Chlorantranilopril 60, Acephate 70, Methoxyfenozide 100, Spinosad 30, Permethrin 10, Indoxacarb 50"}, "[7]": {"conditions": "insecticide + buffered amine oxide system CO3, 12, 200:1, PPM: Chlorantranilopril 60, Acephate 70, Methoxyfenozide 100, Spinosad 30, Permethrin 10, Indoxacarb 50"}, "[8]": {"conditions": "insecticide + buffered amine oxide system CO3, 1218, 200:1, PPM: Chlorantranilopril 60, Acephate 70, Methoxyfenozide 100, Spinosad 30, Permethrin 10, Indoxacarb 50"}, "[9]": {"conditions": "insecticide + buffered amine oxide system PO4, 12, 200:1, PPM: Chlorantranilopril 60, Acephate 70, Methoxyfenozide 100, Spinosad 30, Permethrin 10, Indoxacarb 50"}, "[10]": {"conditions": "insecticide + buffered amine oxide system PO4, 1218, 200:1, PPM: Chlorantranilopril 60, Acephate 70, Methoxyfenozide 100, Spinosad 30, Permethrin 10, Indoxacarb 50"}, "[11]": {"conditions": "insecticide alone, highest, PPM: Chlorantranilopril 120, Acephate 140, Methoxyfenozide 200, Spinosad 60, Permethrin 20, Indoxacarb 100"}, "[12]": {"conditions": "insecticide alone, increased, PPM: Chlorantranilopril 90, Acephate 105, Methoxyfenozide 150, Spinosad 45, Permethrin 15, Indoxacarb 75"}, "[13]": {"conditions": "insecticide alone, PPM: Chlorantranilopril 60, Acephate 70, Methoxyfenozide 100, Spinosad 30, Permethrin 10, Indoxacarb 50"}}, "note": "Where two headings read alike, the source gives them in different places."}
{"smiles": "COC(=O)N(C(=O)N1CO[C@@]2(C(=O)OC)Cc3cc(Cl)ccc3C2=N1)c1ccc(OC(F)(F)F)cc1", "note": "[Indoxacarb]", "values": [{"measurement": "Percent Lepidopteran Damage to Romaine Lettuce 24 hr", "setting": "[1]; [3]", "value": 50.5, "unit": "%"}, {"measurement": "Percent Lepidopteran Damage to Romaine Lettuce 24 hr", "setting": "[1]; [4]", "value": 25.5, "unit": "%"}, {"measurement": "Percent Lepidopteran Damage to Romaine Lettuce 24 hr", "setting": "[1]; [5]", "value": 26.5, "unit": "%"}, {"measurement": "Percent Lepidopteran Damage to Romaine Lettuce 24 hr", "setting": "[1]; [6]", "value": 25.5, "unit": "%"}, {"measurement": "Percent Lepidopteran Damage to Romaine Lettuce 24 hr", "setting": "[1]; [7]", "value": 7.0, "unit": "%"}, {"measurement": "Percent Lepidopteran Damage to Romaine Lettuce 24 hr", "setting": "[1]; [8]", "value": 7.0, "unit": "%"}, {"measurement": "Percent Lepidopteran Damage to Romaine Lettuce 24 hr", "setting": "[1]; [9]", "value": 7.5, "unit": "%"}, {"measurement": "Percent Lepidopteran Damage to Romaine Lettuce 24 hr", "setting": "[1]; [10]", "value": 8.0, "unit": "%"}, {"measurement": "Percent Lepidopteran Damage to Romaine Lettuce 24 hr", "setting": "[1]; [11]", "value": 12.0, "unit": "%"}, {"measurement": "Percent Lepidopteran Damage to Romaine Lettuce 24 hr", "setting": "[1]; insecticide alone, highest, PPM: Chlorantranilopril 120, Acephate 140, Methoxyfenozide 200, Spinosad 60, Permethrin 20, Indoxacarb 100, listed as lndoxacarb", "value": 12.5, "unit": "%"}, {"measurement": "Percent Lepidopteran Damage to Romaine Lettuce 24 hr", "setting": "[1]; [12]", "value": 20.0, "unit": "%"}, {"measurement": "Percent Lepidopteran Damage to Romaine Lettuce 24 hr", "setting": "[1]; [13]", "value": 47.0, "unit": "%"}, {"measurement": "Percent Lepidopteran Damage to Romaine Lettuce 24 hr", "setting": "[2]; [3]", "value": 21.5, "unit": "%"}, {"measurement": "Percent Lepidopteran Damage to Romaine Lettuce 24 hr", "setting": "[2]; [4]", "value": 22.5, "unit": "%"}, {"measurement": "Percent Lepidopteran Damage to Romaine Lettuce 24 hr", "setting": "[2]; [5]", "value": 45.5, "unit": "%"}, {"measurement": "Percent Lepidopteran Damage to Romaine Lettuce 24 hr", "setting": "[2]; [6]", "value": 44.5, "unit": "%"}, {"measurement": "Percent Lepidopteran Damage to Romaine Lettuce 24 hr", "setting": "[2]; [7]", "value": 33.5, "unit": "%"}, {"measurement": "Percent Lepidopteran Damage to Romaine Lettuce 24 hr", "setting": "[2]; [8]", "value": 26.5, "unit": "%"}, {"measurement": "Percent Lepidopteran Damage to Romaine Lettuce 24 hr", "setting": "[2]; [9]", "value": 61.0, "unit": "%"}, {"measurement": "Percent Lepidopteran Damage to Romaine Lettuce 24 hr", "setting": "[2]; [10]", "value": 19.0, "unit": "%"}, {"measurement": "Percent Lepidopteran Damage to Romaine Lettuce 24 hr", "setting": "[2]; [11]", "value": 25.0, "unit": "%"}, {"measurement": "Percent Lepidopteran Damage to Romaine Lettuce 24 hr", "setting": "[2]; [12]", "value": 32.0, "unit": "%"}, {"measurement": "Percent Lepidopteran Damage to Romaine Lettuce 24 hr", "setting": "[2]; [13]", "value": 19.5, "unit": "%"}, {"measurement": "Percent Lepidopteran Damage to Romaine Lettuce 48 hr", "setting": "[2]; [3]", "value": 29.0, "unit": "%"}, {"measurement": "Percent Lepidopteran Damage to Romaine Lettuce 48 hr", "setting": "[2]; [4]", "value": 25.0, "unit": "%"}, {"measurement": "Percent Lepidopteran Damage to Romaine Lettuce 48 hr", "setting": "[2]; [5]", "value": 55.0, "unit": "%"}, {"measurement": "Percent Lepidopteran Damage to Romaine Lettuce 48 hr", "setting": "[2]; [6]", "value": 68.0, "unit": "%"}, {"measurement": "Percent Lepidopteran Damage to Romaine Lettuce 48 hr", "setting": "[2]; [7]", "value": 46.5, "unit": "%"}, {"measurement": "Percent Lepidopteran Damage to Romaine Lettuce 48 hr", "setting": "[2]; [8]", "value": 50.5, "unit": "%"}, {"measurement": "Percent Lepidopteran Damage to Romaine Lettuce 48 hr", "setting": "[2]; [9]", "value": 63.5, "unit": "%"}, {"measurement": "Percent Lepidopteran Damage to Romaine Lettuce 48 hr", "setting": "[2]; [10]", "value": 34.5, "unit": "%"}, {"measurement": "Percent Lepidopteran Damage to Romaine Lettuce 48 hr", "setting": "[2]; [11]", "value": 35.5, "unit": "%"}, {"measurement": "Percent Lepidopteran Damage to Romaine Lettuce 48 hr", "setting": "[2]; [12]", "value": 38.0, "unit": "%"}, {"measurement": "Percent Lepidopteran Damage to Romaine Lettuce 48 hr", "setting": "[2]; [13]", "value": 68.5, "unit": "%"}, {"measurement": "Percent Lepidopteran Damage to Romaine Lettuce 72 hr", "setting": "[2]; [3]", "value": 37.5, "unit": "%"}, {"measurement": "Percent Lepidopteran Damage to Romaine Lettuce 72 hr", "setting": "[2]; [4]", "value": 32.5, "unit": "%"}, {"measurement": "Percent Lepidopteran Damage to Romaine Lettuce 72 hr", "setting": "[2]; [5]", "value": 61.5, "unit": "%"}, {"measurement": "Percent Lepidopteran Damage to Romaine Lettuce 72 hr", "setting": "[2]; [6]", "value": 71.0, "unit": "%"}, {"measurement": "Percent Lepidopteran Damage to Romaine Lettuce 72 hr", "setting": "[2]; [7]", "value": 57.5, "unit": "%"}, {"measurement": "Percent Lepidopteran Damage to Romaine Lettuce 72 hr", "setting": "[2]; [8]", "value": 57.0, "unit": "%"}, {"measurement": "Percent Lepidopteran Damage to Romaine Lettuce 72 hr", "setting": "[2]; [9]", "value": 71.0, "unit": "%"}, {"measurement": "Percent Lepidopteran Damage to Romaine Lettuce 72 hr", "setting": "[2]; [10]", "value": 34.5, "unit": "%"}, {"measurement": "Percent Lepidopteran Damage to Romaine Lettuce 72 hr", "setting": "[2]; [11]", "value": 39.5, "unit": "%"}, {"measurement": "Percent Lepidopteran Damage to Romaine Lettuce 72 hr", "setting": "[2]; [12]", "value": 72.0, "unit": "%"}, {"measurement": "Percent Lepidopteran Damage to Romaine Lettuce 72 hr", "setting": "[2]; [13]", "value": 88.0, "unit": "%"}]}
